# Measurements from US20250367109A1, “DEVICES, SYSTEMS, AND METHODS FOR IMPROVED BONE REMODELING” (UNIVERSITY OF UTAH RESEARCH FOUNDATION, priority 2024, published 2025).
# Assay: local elution of estradiol from implant in left proximal humerus; estradiol concentration in tendon tissue samples by mass spectroscopy
# Type: in vivo, wild-type rats
# Conditions: one week after implantation into left proximal humerus; compared with right rotator cuff, left and right Achilles tendon; 200 micrograms estradiol load
# Source text: Drug-eluting implants analogous to drug-eluting implant 200 were comprised of polycaprolactone and estradiol. The drug-eluting implants were in the form of a cylinder 1 mm in diameter and 5 mm long, and loaded with 200 micrograms of estradiol. The drug-eluting implants were implanted into the left proximal humeri of wild-type rats. One week following implantation, the animals were euthanized and tendon tissue samples were collected at the following sites: left rotator cuff (target site), right rotator cuff, left Achilles tendon, and right Achilles tendon. Mass spectroscopy was used to determine the estradiol concentration in the tissue samples, and the results are provided in an estradiol concentration chart 300.
smiles,measurement,value
C[C@]12CC[C@@H]3c4ccc(O)cc4CC[C@H]3[C@@H]1CC[C@@H]2O [estradiol],estradiol concentration in left rotator cuff tissue (target site) relative to remote tendon sites,significantly higher local estradiol concentrations at the target region relative to other regions
